According to ChEMBL document CHEMBL3991601, “The target landscape of clinical kinase drugs” (Science, 2017):
The source made the active and inactive calls. Cut-off read from the data, not from the text of the source, for most assays here: actives have a measured Kd and inactives only a lower limit.

Tests used:
[1] = molecular target: T1, Serine/threonine-protein kinase Nek1 (Homo sapiens, UniProt Q96PY6)
T1 sequence (Q96PY6 whole entry): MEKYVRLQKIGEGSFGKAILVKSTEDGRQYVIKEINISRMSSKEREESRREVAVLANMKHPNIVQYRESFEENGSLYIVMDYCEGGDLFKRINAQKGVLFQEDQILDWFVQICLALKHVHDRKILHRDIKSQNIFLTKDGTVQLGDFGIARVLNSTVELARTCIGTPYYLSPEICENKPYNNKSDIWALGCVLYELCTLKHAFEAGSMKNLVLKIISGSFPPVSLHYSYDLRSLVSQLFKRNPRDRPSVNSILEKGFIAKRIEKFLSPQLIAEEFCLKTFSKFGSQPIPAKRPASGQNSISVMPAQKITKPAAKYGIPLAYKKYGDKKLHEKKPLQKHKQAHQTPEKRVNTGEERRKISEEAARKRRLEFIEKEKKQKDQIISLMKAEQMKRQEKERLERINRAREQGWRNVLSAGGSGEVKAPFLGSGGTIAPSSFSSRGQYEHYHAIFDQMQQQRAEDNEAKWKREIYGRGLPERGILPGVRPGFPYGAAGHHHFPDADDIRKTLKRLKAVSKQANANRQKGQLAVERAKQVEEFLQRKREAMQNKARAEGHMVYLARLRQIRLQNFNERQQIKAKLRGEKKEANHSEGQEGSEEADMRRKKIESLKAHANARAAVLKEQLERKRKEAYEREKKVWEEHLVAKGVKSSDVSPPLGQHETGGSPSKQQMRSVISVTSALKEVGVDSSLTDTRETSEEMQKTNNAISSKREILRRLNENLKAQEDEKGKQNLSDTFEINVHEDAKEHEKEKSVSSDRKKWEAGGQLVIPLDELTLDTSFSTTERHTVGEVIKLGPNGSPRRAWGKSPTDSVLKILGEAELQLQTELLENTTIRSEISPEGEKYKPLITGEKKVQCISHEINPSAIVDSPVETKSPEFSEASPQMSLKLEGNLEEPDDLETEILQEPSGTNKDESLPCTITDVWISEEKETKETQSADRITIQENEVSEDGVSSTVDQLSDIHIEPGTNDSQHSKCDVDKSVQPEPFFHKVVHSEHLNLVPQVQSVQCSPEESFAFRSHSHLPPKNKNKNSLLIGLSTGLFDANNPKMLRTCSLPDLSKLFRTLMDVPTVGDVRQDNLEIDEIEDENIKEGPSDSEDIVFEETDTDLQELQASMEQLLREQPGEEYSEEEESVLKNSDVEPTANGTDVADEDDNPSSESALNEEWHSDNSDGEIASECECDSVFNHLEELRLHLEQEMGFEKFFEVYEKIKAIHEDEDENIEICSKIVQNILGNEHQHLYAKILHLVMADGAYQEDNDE

[2] = molecular target: Focal adhesion kinase 1 (Homo sapiens, UniProt Q05397)
[3] = molecular target: 5'-AMP-activated protein kinase catalytic subunit alpha-1 (Homo sapiens, UniProt Q13131)
[4] = molecular target: T2, Probable ATP-dependent RNA helicase DDX6 (Homo sapiens, UniProt P26196)
T2 sequence (P26196 whole entry): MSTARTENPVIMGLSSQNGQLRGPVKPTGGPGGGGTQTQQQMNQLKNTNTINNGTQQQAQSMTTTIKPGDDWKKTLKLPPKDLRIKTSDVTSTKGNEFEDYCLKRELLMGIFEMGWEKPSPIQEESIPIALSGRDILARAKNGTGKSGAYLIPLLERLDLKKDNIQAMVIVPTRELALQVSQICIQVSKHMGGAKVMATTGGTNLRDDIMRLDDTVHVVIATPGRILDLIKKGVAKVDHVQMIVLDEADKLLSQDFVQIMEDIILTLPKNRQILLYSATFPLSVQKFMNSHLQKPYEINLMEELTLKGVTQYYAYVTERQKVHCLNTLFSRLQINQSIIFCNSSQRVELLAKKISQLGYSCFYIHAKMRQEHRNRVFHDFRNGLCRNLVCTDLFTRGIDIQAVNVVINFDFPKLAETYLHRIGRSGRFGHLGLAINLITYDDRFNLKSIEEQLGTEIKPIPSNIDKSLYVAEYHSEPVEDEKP

[5] = molecular target: T3, Phosphatidylinositol 5-phosphate 4-kinase type-2 gamma (Homo sapiens, UniProt Q8TBX8)
T3 sequence (Q8TBX8 whole entry): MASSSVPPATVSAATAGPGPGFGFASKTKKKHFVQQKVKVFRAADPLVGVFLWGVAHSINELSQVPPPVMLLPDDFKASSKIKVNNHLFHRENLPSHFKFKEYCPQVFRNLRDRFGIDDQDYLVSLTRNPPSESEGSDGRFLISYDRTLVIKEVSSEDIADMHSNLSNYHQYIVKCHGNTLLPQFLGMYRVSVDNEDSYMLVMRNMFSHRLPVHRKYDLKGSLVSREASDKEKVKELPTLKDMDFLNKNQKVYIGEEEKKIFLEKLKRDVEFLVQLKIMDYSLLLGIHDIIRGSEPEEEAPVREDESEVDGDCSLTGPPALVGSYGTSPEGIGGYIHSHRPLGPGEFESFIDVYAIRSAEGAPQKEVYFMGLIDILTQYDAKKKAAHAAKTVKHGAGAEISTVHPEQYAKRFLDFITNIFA
Note: in the data inactive means no Kd found up to 30 µM.

Sequence of 5'-AMP-activated protein kinase catalytic subunit alpha-1 (Q13131 whole entry): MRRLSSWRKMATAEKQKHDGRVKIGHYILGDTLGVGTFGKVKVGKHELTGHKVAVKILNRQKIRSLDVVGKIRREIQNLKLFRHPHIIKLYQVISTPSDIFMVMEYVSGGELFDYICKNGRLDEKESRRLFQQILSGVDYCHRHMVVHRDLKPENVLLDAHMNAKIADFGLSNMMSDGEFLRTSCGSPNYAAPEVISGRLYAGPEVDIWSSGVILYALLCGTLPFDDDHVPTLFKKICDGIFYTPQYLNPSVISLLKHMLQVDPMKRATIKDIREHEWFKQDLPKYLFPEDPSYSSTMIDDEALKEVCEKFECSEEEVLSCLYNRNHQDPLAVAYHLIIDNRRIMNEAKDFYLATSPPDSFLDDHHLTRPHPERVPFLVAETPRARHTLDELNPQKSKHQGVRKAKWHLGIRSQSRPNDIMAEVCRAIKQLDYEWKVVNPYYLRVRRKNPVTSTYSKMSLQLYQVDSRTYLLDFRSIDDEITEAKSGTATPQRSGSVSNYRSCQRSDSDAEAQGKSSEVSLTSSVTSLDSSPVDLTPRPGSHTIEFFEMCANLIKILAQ
Sequence of Focal adhesion kinase 1 (Q05397 whole entry): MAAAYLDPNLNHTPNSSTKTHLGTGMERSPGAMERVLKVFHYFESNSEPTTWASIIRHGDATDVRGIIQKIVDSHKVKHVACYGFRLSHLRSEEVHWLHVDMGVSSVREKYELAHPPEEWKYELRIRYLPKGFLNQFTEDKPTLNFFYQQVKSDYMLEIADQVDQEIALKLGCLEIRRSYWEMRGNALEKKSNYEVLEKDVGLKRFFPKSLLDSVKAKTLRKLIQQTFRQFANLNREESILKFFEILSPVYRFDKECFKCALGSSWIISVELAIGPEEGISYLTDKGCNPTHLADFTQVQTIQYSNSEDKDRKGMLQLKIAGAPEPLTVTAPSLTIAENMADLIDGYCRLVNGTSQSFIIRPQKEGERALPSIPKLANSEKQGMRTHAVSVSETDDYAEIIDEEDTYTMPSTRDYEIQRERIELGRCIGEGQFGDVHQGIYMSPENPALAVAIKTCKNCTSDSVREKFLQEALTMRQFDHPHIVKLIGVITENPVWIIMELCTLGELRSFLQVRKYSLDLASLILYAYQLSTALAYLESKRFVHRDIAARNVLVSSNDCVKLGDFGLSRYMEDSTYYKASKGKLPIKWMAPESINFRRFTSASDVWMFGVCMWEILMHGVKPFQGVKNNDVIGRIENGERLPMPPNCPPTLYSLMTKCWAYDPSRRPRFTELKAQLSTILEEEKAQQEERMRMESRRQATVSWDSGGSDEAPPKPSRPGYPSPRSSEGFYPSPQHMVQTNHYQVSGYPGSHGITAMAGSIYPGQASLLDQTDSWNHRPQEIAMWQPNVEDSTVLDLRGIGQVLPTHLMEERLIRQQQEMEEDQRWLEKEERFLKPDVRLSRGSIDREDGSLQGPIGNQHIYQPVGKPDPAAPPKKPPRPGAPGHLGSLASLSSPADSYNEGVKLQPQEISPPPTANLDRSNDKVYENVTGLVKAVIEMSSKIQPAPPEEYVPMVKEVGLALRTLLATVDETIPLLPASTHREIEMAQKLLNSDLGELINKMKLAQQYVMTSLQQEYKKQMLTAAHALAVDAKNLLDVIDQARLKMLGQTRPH

Compound	Kd [1]	Kd [2]	Kd [3]	Kd [4]	Kd [5]
O=c1sn(-c2cccc3ccccc23)c(=O)n1Cc1ccccc1 [TIDEGLUSIB]	> 30 µM (inactive)	> 30 µM (inactive)	> 30 µM (inactive)	> 30 µM (inactive)	> 30 µM (inactive)
Cn1cc(-c2ccc3nnc(C(F)(F)c4ccc5ncccc5c4)n3n2)cn1 [JNJ-38877605]	> 30 µM (inactive)	> 30 µM (inactive)	> 30 µM (inactive)	> 30 µM (inactive)	0.32 µM (active)
Cn1ncc(Cl)c1-c1cc(C(=O)N[C@H](CN)Cc2cccc(F)c2)sc1Cl [AFURESERTIB]	> 30 µM (inactive)	> 30 µM (inactive)	> 30 µM (inactive)	–	> 30 µM (inactive)
CNS(=O)(=O)Nc1nccc(Cc2c(C)c3ccc(Oc4ncccn4)cc3oc2=O)c1F [AVUTOMETINIB]	> 30 µM (inactive)	> 30 µM (inactive)	> 30 µM (inactive)	> 30 µM (inactive)	> 30 µM (inactive)
CN(C)C(=O)c1cc2cnc(Nc3ccc(N4CCNCC4)cn3)nc2n1C1CCCC1 [RIBOCICLIB]	> 30 µM (inactive)	> 30 µM (inactive)	> 30 µM (inactive)	> 30 µM (inactive)	> 30 µM (inactive)
CCc1cnn2c(NCc3ccc[n+]([O-])c3)cc(N3CCCC[C@H]3CCO)nc12 [DINACICLIB]	> 30 µM (inactive)	–	–	> 30 µM (inactive)	> 30 µM (inactive)
COc1ccc(-c2ccc3c(N4CCOC[C@@H]4C)nc(N4CCOC[C@@H]4C)nc3n2)cc1CO [AZD-8055]	> 30 µM (inactive)	> 30 µM (inactive)	> 30 µM (inactive)	> 30 µM (inactive)	> 30 µM (inactive)
COc1cc2nccc(Oc3ccc(NC(=O)Nc4cc(C)on4)c(Cl)c3)c2cc1OC [TIVOZANIB]	> 30 µM (inactive)	> 30 µM (inactive)	> 30 µM (inactive)	> 30 µM (inactive)	> 30 µM (inactive)
C[C@@H](Nc1cc(F)cc(F)c1)c1cc(C(=O)N(C)C)cc2c(=O)cc(N3CCOCC3)oc12 [AZD-8186]	> 30 µM (inactive)	> 30 µM (inactive)	> 30 µM (inactive)	–	> 30 µM (inactive)
CNC(=O)CN1CCC(Oc2cc3c(Nc4cccc(Cl)c4F)ncnc3cc2OC)CC1 [SAPITINIB]	> 30 µM (inactive)	> 30 µM (inactive)	> 30 µM (inactive)	> 30 µM (inactive)	> 30 µM (inactive)
CCCS(=O)(=O)Nc1ccc(F)c(C(=O)c2c[nH]c3ncc(-c4ccc(Cl)cc4)cc23)c1F [VEMURAFENIB]	> 30 µM (inactive)	> 30 µM (inactive)	> 30 µM (inactive)	> 30 µM (inactive)	> 30 µM (inactive)
CNC(=O)c1ccc(C)c(-n2c(C)cc(OCc3ccc(F)cc3F)c(Br)c2=O)c1 [PH-797804]	> 30 µM (inactive)	> 30 µM (inactive)	> 30 µM (inactive)	–	> 30 µM (inactive)
COC(=O)[C@@]1(O)C[C@H]2O[C@]1(C)n1c3ccccc3c3c4c(c5c6ccccc6n2c5c31)C(=O)NC4 [K-252A]	> 30 µM (inactive)	> 30 µM (inactive)	0.461 µM (active)	> 30 µM (inactive)	> 30 µM (inactive)
C[C@@H](c1ccc2nccn2c1)n1nnc2ncc(-c3cnn(C)c3)nc21 [SAVOLITINIB]	> 30 µM (inactive)	> 30 µM (inactive)	> 30 µM (inactive)	> 30 µM (inactive)	–
CN1CCC(COc2cnc(-c3cccc(Cn4nc(-c5cccc(C#N)c5)ccc4=O)c3)nc2)CC1 [TEPOTINIB]	> 30 µM (inactive)	> 30 µM (inactive)	> 30 µM (inactive)	> 30 µM (inactive)	> 30 µM (inactive)
COc1cc(N2CCC(N3CCN(C)CC3)CC2)ccc1Nc1ncnc(Nc2ccccc2S(=O)(=O)C(C)C)n1 [ASP-3026]	> 30 µM (inactive)	0.074 µM (active)	> 30 µM (inactive)	> 30 µM (inactive)	> 30 µM (inactive)
CNC(=O)c1ccc(-c2cnc3ncc(Cc4ccc5ncccc5c4)n3n2)cc1F [CAPMATINIB]	> 30 µM (inactive)	> 30 µM (inactive)	> 30 µM (inactive)	> 30 µM (inactive)	> 30 µM (inactive)
CCn1c(=O)c(-c2cc[nH]n2)cc2c(C)nc(N)nc21 [VOXTALISIB]	> 30 µM (inactive)	> 30 µM (inactive)	> 30 µM (inactive)	> 30 µM (inactive)	> 30 µM (inactive)
Cc1cc2c(F)c(Oc3ncnn4cc(OC[C@@H](C)OC(=O)[C@H](C)N)c(C)c34)ccc2[nH]1 [BRIVANIB ALANINATE]	> 30 µM (inactive)	> 30 µM (inactive)	> 30 µM (inactive)	> 30 µM (inactive)	> 30 µM (inactive)
COc1cc(OC)c(/C=C/S(=O)(=O)Cc2ccc(OC)c(NCC(=O)O)c2)c(OC)c1 [RIGOSERTIB]	> 30 µM (inactive)	> 30 µM (inactive)	> 30 µM (inactive)	> 30 µM (inactive)	> 30 µM (inactive)
C=CC(=O)N1CCC(Oc2cc3c(Nc4ccc(Cl)c(Cl)c4F)ncnc3cc2OC)CC1 [POZIOTINIB]	> 30 µM (inactive)	> 30 µM (inactive)	> 30 µM (inactive)	> 30 µM (inactive)	> 30 µM (inactive)
Cc1ccc(-n2nc(C(C)(C)C)cc2NC(=O)NCc2cc(F)ccc2Oc2ccc3c(cnn3CCO)c2)cc1 [PEXMETINIB]	> 30 µM (inactive)	> 30 µM (inactive)	> 30 µM (inactive)	> 30 µM (inactive)	> 30 µM (inactive)
Cc1cn(-c2cc(NC(=O)c3ccc(C)c(Nc4nccc(-c5cccnc5)n4)c3)cc(C(F)(F)F)c2)cn1 [NILOTINIB]	–	–	–	> 30 µM (inactive)	–
Cc1cc(Nc2cc(N3CCN(C)CC3)nc(/C=C/c3ccccc3)n2)n[nH]1 [ENMD-2076]	> 30 µM (inactive)	–	> 30 µM (inactive)	> 30 µM (inactive)	> 30 µM (inactive)
OCCn1cc(-c2cnc3nnn(Cc4ccc5ncccc5c4)c3n2)cn1 [PF-04217903]	> 30 µM (inactive)	–	–	> 30 µM (inactive)	> 30 µM (inactive)
O=C(Nc1cccc(Cl)c1)Nc1ncc(CCNc2ncnc3ccsc23)s1 [SNS-314]	> 30 µM (inactive)	–	–	> 30 µM (inactive)	–
Cc1nc(N)sc1-c1ccnc(Nc2ccc(N3CCOCC3)cc2)n1 [CYC-116]	1.1 µM (active)	13 µM (active)	–	> 30 µM (inactive)	0.067 µM (active)
CCn1c(-c2nonc2N)nc2c(C#CC(C)(C)O)ncc(OC[C@H]3CCCNC3)c21 [GSK-690693]	–	–	–	> 30 µM (inactive)	–
CN1CCN(c2ccc3nc(-c4c(N)c5c(F)cccc5[nH]c4=O)[nH]c3c2)CC1 [DOVITINIB]	–	–	–	> 30 µM (inactive)	–
Nc1nc(N)c2nc(-c3cccc(O)c3)c(-c3cccc(O)c3)nc2n1 [TG100-115]	–	–	–	> 30 µM (inactive)	–
